Assay results published in US8598344B2, “CDKI pathway inhibitors and uses thereof” (Senex Biotechnology, priority 2009, dated 2013).

Assays:
Assay in all cases: KinomeScan competition binding assay
Conditions in all cases: 10 μM compound
BTK = target: T1, BTK (Homo sapiens, UniProt Q06187)
T1 construct: purchased KinomeScan, a division of Ambit Biosciences
Procedure, shortened: (§1)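 Test compound competes with an immobilized, ATP-site-directed ligand for binding to DNA-tagged kinase. Kinase remaining on the ligand is quantified by qPCR of the DNA tag. Values are reported as percent of control binding or as binding constants (Kd).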

CIT = target: T2, CIT (Homo sapiens, UniProt O14578)
T2 construct: purchased KinomeScan, a division of Ambit Biosciences
T2 sequence (O14578 whole entry): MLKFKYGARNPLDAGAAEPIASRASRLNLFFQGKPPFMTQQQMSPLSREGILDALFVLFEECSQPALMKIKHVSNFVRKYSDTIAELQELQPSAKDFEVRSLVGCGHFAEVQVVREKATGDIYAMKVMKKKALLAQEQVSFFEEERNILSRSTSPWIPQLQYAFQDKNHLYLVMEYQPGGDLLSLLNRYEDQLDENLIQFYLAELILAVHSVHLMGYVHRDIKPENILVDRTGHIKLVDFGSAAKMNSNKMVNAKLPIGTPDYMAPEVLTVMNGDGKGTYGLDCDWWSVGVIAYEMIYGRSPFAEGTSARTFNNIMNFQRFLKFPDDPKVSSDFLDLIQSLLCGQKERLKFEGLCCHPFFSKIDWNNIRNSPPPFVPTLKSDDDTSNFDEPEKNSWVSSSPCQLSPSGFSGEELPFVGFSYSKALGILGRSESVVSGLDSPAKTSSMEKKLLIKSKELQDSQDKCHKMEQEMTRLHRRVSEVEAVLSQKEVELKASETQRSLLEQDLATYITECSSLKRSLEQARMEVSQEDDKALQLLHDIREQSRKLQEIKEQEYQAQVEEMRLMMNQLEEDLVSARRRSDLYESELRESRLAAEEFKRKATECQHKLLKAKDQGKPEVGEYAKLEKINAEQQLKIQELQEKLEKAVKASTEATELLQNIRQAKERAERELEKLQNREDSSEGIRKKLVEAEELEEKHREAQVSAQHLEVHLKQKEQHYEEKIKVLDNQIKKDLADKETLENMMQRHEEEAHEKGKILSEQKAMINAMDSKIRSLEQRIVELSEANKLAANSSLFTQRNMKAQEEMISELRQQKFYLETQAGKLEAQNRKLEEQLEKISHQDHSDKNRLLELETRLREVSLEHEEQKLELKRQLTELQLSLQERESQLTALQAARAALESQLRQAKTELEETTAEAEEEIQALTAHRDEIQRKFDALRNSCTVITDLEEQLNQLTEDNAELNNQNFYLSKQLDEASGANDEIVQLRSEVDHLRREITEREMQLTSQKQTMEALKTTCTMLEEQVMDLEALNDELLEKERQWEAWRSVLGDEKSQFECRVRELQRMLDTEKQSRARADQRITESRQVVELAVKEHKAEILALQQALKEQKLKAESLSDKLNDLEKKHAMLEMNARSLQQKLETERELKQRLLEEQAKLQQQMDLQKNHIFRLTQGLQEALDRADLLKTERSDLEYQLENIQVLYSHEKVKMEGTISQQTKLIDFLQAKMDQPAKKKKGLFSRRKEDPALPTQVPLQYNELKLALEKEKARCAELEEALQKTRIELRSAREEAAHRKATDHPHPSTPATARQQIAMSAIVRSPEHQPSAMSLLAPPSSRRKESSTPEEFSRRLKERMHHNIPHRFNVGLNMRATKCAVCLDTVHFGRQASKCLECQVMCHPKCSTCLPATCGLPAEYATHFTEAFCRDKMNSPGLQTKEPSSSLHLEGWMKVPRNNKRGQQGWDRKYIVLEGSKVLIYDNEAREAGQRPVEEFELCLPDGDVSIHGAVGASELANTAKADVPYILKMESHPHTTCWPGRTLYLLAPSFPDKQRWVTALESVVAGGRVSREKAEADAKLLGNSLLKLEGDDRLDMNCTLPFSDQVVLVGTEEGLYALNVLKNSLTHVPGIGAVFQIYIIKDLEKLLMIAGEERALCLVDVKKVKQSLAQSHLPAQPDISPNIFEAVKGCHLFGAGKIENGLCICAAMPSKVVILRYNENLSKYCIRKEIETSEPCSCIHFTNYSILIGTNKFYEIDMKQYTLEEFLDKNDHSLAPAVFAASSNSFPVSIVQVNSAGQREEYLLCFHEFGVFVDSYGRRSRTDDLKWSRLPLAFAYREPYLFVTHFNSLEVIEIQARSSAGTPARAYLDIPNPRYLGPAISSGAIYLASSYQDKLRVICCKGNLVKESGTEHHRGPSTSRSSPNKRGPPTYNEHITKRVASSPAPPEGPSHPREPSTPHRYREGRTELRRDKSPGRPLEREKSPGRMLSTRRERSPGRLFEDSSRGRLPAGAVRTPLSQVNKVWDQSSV
Procedure, shortened: as §1

MAP4K2 = target: T3, MAP4K2 (Homo sapiens, UniProt Q12851)
T3 construct: purchased KinomeScan, a division of Ambit Biosciences
T3 sequence (Q12851 1-820): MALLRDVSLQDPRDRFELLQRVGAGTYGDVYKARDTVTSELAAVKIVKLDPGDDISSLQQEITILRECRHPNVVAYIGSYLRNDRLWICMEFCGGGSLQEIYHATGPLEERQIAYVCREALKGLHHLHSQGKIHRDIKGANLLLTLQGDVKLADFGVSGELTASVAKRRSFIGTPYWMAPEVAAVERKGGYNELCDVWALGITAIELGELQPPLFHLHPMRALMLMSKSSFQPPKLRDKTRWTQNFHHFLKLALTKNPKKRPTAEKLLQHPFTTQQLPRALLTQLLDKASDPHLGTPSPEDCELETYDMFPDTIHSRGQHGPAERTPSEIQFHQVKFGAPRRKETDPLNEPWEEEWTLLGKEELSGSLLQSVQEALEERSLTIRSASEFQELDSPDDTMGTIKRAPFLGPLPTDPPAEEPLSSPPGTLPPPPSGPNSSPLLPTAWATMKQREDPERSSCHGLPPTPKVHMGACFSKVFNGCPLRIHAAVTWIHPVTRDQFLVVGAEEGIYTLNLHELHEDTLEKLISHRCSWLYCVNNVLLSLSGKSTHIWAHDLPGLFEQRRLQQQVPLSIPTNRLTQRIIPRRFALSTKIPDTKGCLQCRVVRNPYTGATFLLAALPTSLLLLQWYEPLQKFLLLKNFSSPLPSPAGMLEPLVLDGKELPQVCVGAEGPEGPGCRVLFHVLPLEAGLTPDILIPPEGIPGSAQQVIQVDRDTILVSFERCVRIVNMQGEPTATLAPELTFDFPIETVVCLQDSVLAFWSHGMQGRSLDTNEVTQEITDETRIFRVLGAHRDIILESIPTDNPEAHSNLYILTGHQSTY
Procedure, shortened: as §1

YSK4 = target: T4, YSK4 (Homo sapiens, UniProt Q56UN5)
T4 construct: purchased KinomeScan, a division of Ambit Biosciences
T4 sequence (Q56UN5 1-1328): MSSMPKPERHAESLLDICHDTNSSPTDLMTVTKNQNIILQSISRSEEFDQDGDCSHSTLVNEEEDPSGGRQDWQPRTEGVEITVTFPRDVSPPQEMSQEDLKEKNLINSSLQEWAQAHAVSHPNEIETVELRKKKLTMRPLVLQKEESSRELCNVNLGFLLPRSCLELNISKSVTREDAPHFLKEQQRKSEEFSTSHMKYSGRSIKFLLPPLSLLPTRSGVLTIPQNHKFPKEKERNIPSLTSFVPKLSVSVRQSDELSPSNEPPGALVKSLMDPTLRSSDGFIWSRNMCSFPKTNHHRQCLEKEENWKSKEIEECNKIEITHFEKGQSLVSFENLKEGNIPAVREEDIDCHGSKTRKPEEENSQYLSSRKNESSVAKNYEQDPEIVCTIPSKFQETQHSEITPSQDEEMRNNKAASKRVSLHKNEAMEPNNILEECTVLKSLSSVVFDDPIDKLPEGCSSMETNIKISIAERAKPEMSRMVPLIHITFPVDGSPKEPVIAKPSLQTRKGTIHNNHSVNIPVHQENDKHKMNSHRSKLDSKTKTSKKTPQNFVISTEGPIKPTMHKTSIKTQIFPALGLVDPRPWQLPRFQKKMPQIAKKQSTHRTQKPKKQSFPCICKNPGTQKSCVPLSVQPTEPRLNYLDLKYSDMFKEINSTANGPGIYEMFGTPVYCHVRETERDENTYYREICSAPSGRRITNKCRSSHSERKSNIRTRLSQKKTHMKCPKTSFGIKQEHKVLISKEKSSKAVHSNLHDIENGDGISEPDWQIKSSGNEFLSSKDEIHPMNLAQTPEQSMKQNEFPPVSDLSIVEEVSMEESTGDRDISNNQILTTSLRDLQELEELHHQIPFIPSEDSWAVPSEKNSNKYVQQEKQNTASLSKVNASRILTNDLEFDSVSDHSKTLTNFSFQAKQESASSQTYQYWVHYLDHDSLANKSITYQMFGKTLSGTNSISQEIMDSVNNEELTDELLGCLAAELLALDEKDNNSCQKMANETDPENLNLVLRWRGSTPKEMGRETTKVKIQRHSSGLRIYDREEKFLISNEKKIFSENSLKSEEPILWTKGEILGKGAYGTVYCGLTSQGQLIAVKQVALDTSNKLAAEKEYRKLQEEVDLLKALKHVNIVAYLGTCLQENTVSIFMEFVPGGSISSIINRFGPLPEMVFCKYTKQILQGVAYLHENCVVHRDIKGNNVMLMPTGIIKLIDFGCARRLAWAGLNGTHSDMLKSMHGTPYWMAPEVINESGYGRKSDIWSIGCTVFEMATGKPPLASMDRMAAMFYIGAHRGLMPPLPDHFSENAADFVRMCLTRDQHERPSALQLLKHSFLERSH
Procedure, shortened: as §1

T1 sequence (Q06187 whole entry): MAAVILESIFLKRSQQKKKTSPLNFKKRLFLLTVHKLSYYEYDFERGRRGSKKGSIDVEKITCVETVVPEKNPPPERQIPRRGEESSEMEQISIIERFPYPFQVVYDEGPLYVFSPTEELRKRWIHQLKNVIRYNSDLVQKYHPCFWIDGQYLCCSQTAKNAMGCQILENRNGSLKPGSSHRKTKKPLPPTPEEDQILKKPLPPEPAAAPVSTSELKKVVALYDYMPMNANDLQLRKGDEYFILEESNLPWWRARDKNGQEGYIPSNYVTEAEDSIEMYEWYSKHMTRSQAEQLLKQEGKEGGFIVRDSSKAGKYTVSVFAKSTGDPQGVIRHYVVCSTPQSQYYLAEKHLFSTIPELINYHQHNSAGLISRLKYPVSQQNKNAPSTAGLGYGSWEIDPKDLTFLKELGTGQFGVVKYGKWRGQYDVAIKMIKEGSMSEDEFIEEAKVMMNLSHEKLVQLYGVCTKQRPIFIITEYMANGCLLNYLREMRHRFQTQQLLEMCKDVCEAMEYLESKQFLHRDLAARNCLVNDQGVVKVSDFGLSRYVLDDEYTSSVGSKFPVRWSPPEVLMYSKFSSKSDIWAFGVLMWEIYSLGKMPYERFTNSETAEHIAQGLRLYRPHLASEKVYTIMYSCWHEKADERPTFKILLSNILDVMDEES

Row | SMILES | POC ligand binding, BTK (BTK) | POC ligand binding, CIT (CIT) | POC ligand binding, MAP4K2 (MAP4K2) | POC ligand binding, YSK4 (YSK4) | POC ligand binding, CIT (CIT; 10 µM) | POC ligand binding, MAP4K2 (MAP4K2; 10 µM) | POC ligand binding, YSK4 (YSK4; 10 µM)
1 | COc1ccc2ncnc(NCCc3ccccc3)c2c1 [compound 44] | 100 POC | 18 POC | 35 POC | 39 POC |  |  | 
2 | N#Cc1ccc2ncnc(NCc3ccc4ccccc4c3)c2c1 [compound 14] | 100 POC |  |  |  | 9.8 POC | 16 POC | 21 POC
3 | CC(C)CNc1ncnc2ccc(C(F)(F)F)cc12 [compound 45] | 100 POC | 50 POC | 12 POC | 41 POC |  |  | 
4 | N#Cc1ccc2ncnc(NCc3ccc4ccccc4c3)c2c1 [compound 43] | 100 POC |  |  |  | 14 POC | 28 POC | 29 POC
5 | N#Cc1ccc2ncnc(NCCc3ccccc3)c2c1 [compound 1] | 15 POC | 15 POC | 12 POC | 5.4 POC |  |  | 
6 | CCCNc1ncnc2ccc(N3CCOCC3)cc12 [compound 46] | 81 POC | 86 POC | 82 POC | 91 POC |  |  | 
7 | N#Cc1ccc2ncnc(NCCc3ccc4ccccc4c3)c2c1 [compound 26] | 100 POC | 40 POC | 28 POC | 44 POC |  |  | 
8 | N#Cc1ccc2ncnc(NCc3ccc(Cl)cc3)c2c1 [compound 20] | 100 POC | 7.9 POC | 21 POC | 31 POC |  |  | 
